Reference: patent US4178442A, “Novel cinnamoyles piperazines and homopiperazines, the method of preparing them and their application in therapeutics” (Delalande S. A., priority 1977, dated 1979)
Read-outs that look alike come from different tables or passages of the source.

Columns and labels:
[1] = tested on: anaesthetized dog; test: Antiangorous activity on anaesthetized dog: consumption of oxygen in the left ventricule and cardiac effort (KATZ's index); assay type: in vivo; details: for inhibition in vivo at 2.5 mg/kg / inhibition in vivo at 1.25 mg/kg / inhibition in vivo at […]: Canis lupus familiaris, iv; for inhibition in vivo at […]: 0.15 mg/kg i.v. slow perfusion
Procedure, shortened: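 Katz index taken as mean arterial pressure multiplied by ECG (D2) heart rate, and myocardial O2 use as coronary sinus flow via modified Morawitz cannula times coronary arteriovenous O2 difference. Animals: pentobarbital-anaesthetized dogs (30 mg/kg i.v.), test compounds infused slowly intravenously.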

[2] = in vivo; details: for LD50: read-out: Toxicity: LD50; for mortality: read-out: Toxicity (Mortality)
Excerpt: *LD50 or percentage of mortality which is given between brackets

[3] = 2.5 mg/kg i.v. slow perfusion, read-out: Diminution in consumption of O2
[4] = 2.5 mg/kg i.v. slow perfusion, read-out: Diminution in the cardiac effort (IK)
[5] = read-out: Diminution in consumption of O2
[6] = read-out: Diminution in the cardiac effort (IK)

COc1cc(/C=C/C(=O)N2CCN(CC(O)COc3ccc(C(C)=O)c4c3OCCO4)CC2)cc(OC)c1OC(C)C (stereo not shown) [770 727]
Diminution in consumption of O2: in time ([1]; 2.5 mg/kg i.v. slow perfusion): 15 min | Diminution in the cardiac effort (IK): in time ([1]; 2.5 mg/kg i.v. slow perfusion): 30 min | inhibition in vivo at 2.5 mg/kg [1, 3]: 57% | inhibition in vivo at 2.5 mg/kg [1, 4]: 27% | LD50 ([2]; iv): 130 mg/kg

COc1cc(/C=C/C(=O)N2CCN(CC(O)COc3ccccc3NC(C)=O)CC2)cc(OC)c1OC (stereo not shown) [770 738]
Diminution in consumption of O2: in time ([1]; 2.5 mg/kg i.v. slow perfusion): 45 min | Diminution in the cardiac effort (IK): in time ([1]; 2.5 mg/kg i.v. slow perfusion): 45 min | inhibition in vivo at 2.5 mg/kg [1, 3]: 63% | inhibition in vivo at 2.5 mg/kg [1, 4]: 48% | mortality ([2]; iv, 400 mg/kg i.v.): 40%

COc1cc(/C=C/C(=O)N2CCN(CC(O)COc3ccc(C(=O)NC4CCCCC4)c4c3OCCO4)CC2)cc(OC)c1OC (stereo not shown) [770 831]
Diminution in consumption of O2: in time ([1]; 1.25 mg/kg i.v. slow perfusion): 30 min | Diminution in the cardiac effort (IK): in time ([1]; 1.25 mg/kg i.v. slow perfusion): 45 min | inhibition in vivo at 1.25 mg/kg ([1]; 1.25 mg/kg i.v. slow perfusion, read-out: Diminution in consumption of O2): 45% | inhibition in vivo at 1.25 mg/kg ([1]; 1.25 mg/kg i.v. slow perfusion, read-out: Diminution in the cardiac effort (IK)): 27% | mortality ([2]; po, p.o.: 2000 mg/kg): 0%

COc1cc(/C=C/C(=O)N2CCN(CC(O)COc3cccc(NC(C)=O)c3)CC2)cc(OC)c1OC (stereo not shown) [770 844]
Diminution in consumption of O2: in time ([1]; 2.5 mg/kg i.v. slow perfusion): 23 min | Diminution in the cardiac effort (IK): in time ([1]; 2.5 mg/kg i.v. slow perfusion): 30 min | inhibition in vivo at 2.5 mg/kg [1, 3]: 58% | inhibition in vivo at 2.5 mg/kg [1, 4]: 35% | mortality ([2]; iv, 400 mg/kg i.v.): 0%

COc1cc(/C=C/C(=O)N2CCN(CC(O)COc3ccc(C(=O)Nc4ccccc4)c4c3OCCO4)CC2)cc(OC)c1OC (stereo not shown) [770 848]
inhibition in vivo at […] [1, 5]: 41% | inhibition in vivo at […] [1, 6]: 5% | mortality ([2]; iv, 400 mg/kg i.v.): 10%

CCC(=O)c1ccc(OCC(O)CN2CCN(C(=O)/C=C/c3cc(OC)c(OC)c(OC)c3)CC2)cc1 (stereo not shown) [770 854]
Diminution in consumption of O2: in time ([1]; 2.5 mg/kg i.v. slow perfusion): 40 min | Diminution in the cardiac effort (IK): in time ([1]; 2.5 mg/kg i.v. slow perfusion): 40 min | inhibition in vivo at 2.5 mg/kg [1, 3]: 41% | inhibition in vivo at 2.5 mg/kg [1, 4]: 18% | mortality ([2]; iv, 300 mg/kg i.v.): 20%

CNC(=O)c1ccc(OCC(O)CN2CCN(C(=O)/C=C/c3cc(OC)c(OC)c(OC)c3)CC2)c(OC)c1 (stereo not shown) [770 855]
Diminution in consumption of O2: in time ([1]; 2.5 mg/kg i.v. slow perfusion): 60 min | Diminution in the cardiac effort (IK): in time ([1]; 2.5 mg/kg i.v. slow perfusion): 60 min | inhibition in vivo at 2.5 mg/kg [1, 3]: 60% | inhibition in vivo at 2.5 mg/kg [1, 4]: 45% | LD50 ([2]; iv): 260 mg/kg

COc1cc(/C=C/C(=O)N2CCN(CC(O)COc3ccc(C(C)C)cc3)CC2)cc(OC)c1OC (stereo not shown) [770 858]
inhibition in vivo at […] [1, 5]: 16% | inhibition in vivo at […] [1, 6]: 15% | LD50 ([2]; iv): 260 mg/kg

COc1cc(/C=C/C(=O)N2CCN(CC(O)COc3ccc(C(C)(C)C)cc3)CC2)cc(OC)c1OC (stereo not shown) [770 859]
Diminution in consumption of O2: in time ([1]; 2.5 mg/kg i.v. slow perfusion): 30 min | Diminution in the cardiac effort (IK): in time ([1]; 2.5 mg/kg i.v. slow perfusion): 60 min | inhibition in vivo at 2.5 mg/kg [1, 3]: 30% | inhibition in vivo at 2.5 mg/kg [1, 4]: 52% | LD50 ([2]; iv): 150 mg/kg

CNC(=O)Nc1ccc(OCC(O)CN2CCN(C(=O)/C=C/c3cc(OC)c(OC)c(OC)c3)CC2)cc1C (stereo not shown) [770 898]
Diminution in consumption of O2: in time ([1]; 2.5 mg/kg i.v. slow perfusion): 45 min | Diminution in the cardiac effort (IK): in time ([1]; 2.5 mg/kg i.v. slow perfusion): 38 min | inhibition in vivo at 2.5 mg/kg [1, 3]: 45% | inhibition in vivo at 2.5 mg/kg [1, 4]: 36% | mortality ([2]; iv, 400 mg/kg i.v.): 0%

COc1cc(/C=C/C(=O)N2CCN(CC(O)COc3ccc([N+](=O)[O-])c(C)c3)CC2)cc(OC)c1OC (stereo not shown) [770 963]
Diminution in consumption of O2: in time ([1]; 2.5 mg/kg i.v. slow perfusion): 30 min | Diminution in the cardiac effort (IK): in time ([1]; 2.5 mg/kg i.v. slow perfusion): 30 min | inhibition in vivo at 2.5 mg/kg [1, 3]: 58% | inhibition in vivo at 2.5 mg/kg [1, 4]: 66% | LD50 ([2]; iv): 190 mg/kg

CNC(=O)Nc1ccc(OCC(O)CN2CCN(C(=O)/C=C/c3cc(OC)c(OC)c(OC)c3)CC2)c(OC)c1OC (stereo not shown) [770 992]
Diminution in consumption of O2: in time ([1]; 2.5 mg/kg i.v. slow perfusion): 40 min | Diminution in the cardiac effort (IK): in time ([1]; 2.5 mg/kg i.v. slow perfusion): 30 min | inhibition in vivo at 2.5 mg/kg [1, 3]: 77% | inhibition in vivo at 2.5 mg/kg [1, 4]: 36% | mortality ([2]; iv, 400 mg/kg i.v.): 0%

COc1cc(/C=C/C(=O)N2CCN(CC(O)COc3ccc(C(C)=O)cc3C)CC2)cc(OC)c1OC (stereo not shown) [770 993, 1-[3-(2-methyl-4-acetyl)phenyl-2-hydroxy]-propyl-4-(3,4,5-trimethoxycinnamoyl)piperazine chlorhydrate]
Diminution in consumption of O2: in time ([1]; 2.5 mg/kg i.v. slow perfusion): 23 min | Diminution in the cardiac effort (IK): in time ([1]; 2.5 mg/kg i.v. slow perfusion): 13 min | inhibition in vivo at 2.5 mg/kg [1, 3]: 53% | inhibition in vivo at 2.5 mg/kg [1, 4]: 15% | LD50 ([2]; iv): 10 mg/kg
